Measured values published in PubChem BioAssay AID1845204 (Molecular Pharmacology Branch, DTP, NCI, 2023).
Where “and” joins values, the source holds several entries; their conditions need not be identical. Identical values can stand only once.

Test system: HSSY-II tumor spheroid viability
Test: Anticancer human tumor HSSY-II cell line growth inhibition;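 note: spheroids exposed to compounds for seven days before reading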;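 for viability, T/C: percent of DMSO vehicle control viability so 100% = untreated level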
Details: spheroids with HUVEC and MSC; for viability, T/C: stronger effect = lower value
Method in brief: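 Complex tumor spheroids combined malignant cells with endothelial cells and mesenchymal stem cells. DNA-damaging drugs and DNA repair inhibitors were tested alone and in combination, at half-log dilutions down from clinical Cmax (top 10 microM if Cmax unknown), 0.25% DMSO final.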

Q: How did the viability, T/C (compound 0.0316 µM) turn out when [2H]c1nc(C)nc([2H])c1-c1cc(NC[C@@H](C)c2cccc3c(C(=O)NC)ccnc23)ncn1 was run?
A: 95.9% and 98.9% and 105%

Q: What about the viability, T/C (compound 0.1 µM) of the same compound?
A: 98.9% and 99.4% and 98.4%

Q: And the viability, T/C (compound 0.316 µM)?
A: 95.8% and 98.1% and 101%

Q: And the viability, T/C (compound 1 µM)?
A: 99.1% and 97.4% and 99.5%

Q: What about the viability, T/C (compound 3.16 µM) of the same compound?
A: 99% and 92.2% and 97%

Q: And the viability, T/C (compound 10 µM)?
A: 93.9% and 84.6% and 93%

Q: And the IC50 (curve of compound)?
A: > 10000 nM

Q: What does the source list for Cn1ncnc1[C@H]1c2n[nH]c(=O)c3cc(F)cc(c23)N[C@@H]1c1ccc(F)cc1 + COc1cc2c(cc1O)CCNC21CSC2c3c(OC(C)=O)c(C)c4c(c3C(COC1=O)N1C(O)C3Cc5cc(C)c(OC)c(O)c5C(C21)N3C)OCO4?
A: IC50 (curve of first compound, second compound 30 pM): 36.7 nM; IC50 (curve of first compound, second compound 94.9 pM): < 9.49 nM; IC50 (curve of first compound, second compound 0.0003 µM): < 9.49 nM; IC50 (curve of first compound, second compound 0.000949 µM): < 9.49 nM; IC50 (curve of first compound, second compound 0.003 µM): < 9.49 nM; viability, T/C (second compound 30 pM, first compound 0.00949 µM): 65.3%; viability, T/C (second compound 30 pM, first compound 0.03 µM): 53.8%; viability, T/C (second compound 30 pM, first compound 0.0949 µM): 32%; viability, T/C (second compound 30 pM, first compound 0.3 µM): 14.4%; viability, T/C (second compound 30 pM, first compound 0.949 µM): 9.09%; viability, T/C (second compound 30 pM, first compound 3 µM): 6.64%; viability, T/C (second compound 94.9 pM, first compound 0.00949 µM): 32.6%; viability, T/C (second compound 94.9 pM, first compound 0.03 µM): 25.6%; viability, T/C (second compound 94.9 pM, first compound 0.0949 µM): 15.6%; viability, T/C (second compound 94.9 pM, first compound 0.3 µM): 10.5%; viability, T/C (second compound 94.9 pM, first compound 0.949 µM): 8.55%; viability, T/C (second compound 94.9 pM, first compound 3 µM): 6.28%; viability, T/C (second compound 0.0003 µM, first compound 0.00949 µM): 8.74%; viability, T/C (second compound 0.0003 µM, first compound 0.03 µM): 9.03%; viability, T/C (second compound 0.0003 µM, first compound 0.0949 µM): 8.23%; viability, T/C (second compound 0.0003 µM, first compound 0.3 µM): 7.73%; viability, T/C (second compound 0.0003 µM, first compound 0.949 µM): 6.35%; viability, T/C (second compound 0.0003 µM, first compound 3 µM): 3.6%; viability, T/C (second compound 0.000949 µM, first compound 0.00949 µM): 2.25%; viability, T/C (second compound 0.000949 µM, first compound 0.03 µM): 1.71%; viability, T/C (second compound 0.000949 µM, first compound 0.0949 µM): 1.81%; viability, T/C (second compound 0.000949 µM, first compound 0.3 µM): 2.07%; viability, T/C (second compound 0.000949 µM, first compound 0.949 µM): 0.53%; viability, T/C (second compound 0.000949 µM, first compound 3 µM): 0.15%; viability, T/C (second compound 0.003 µM, first compound 0.00949 µM): 0.2%; viability, T/C (second compound 0.003 µM, first compound 0.03 µM): 0.25%; viability, T/C (second compound 0.003 µM, first compound 0.0949 µM): 0.2%; viability, T/C (second compound 0.003 µM, first compound 0.3 µM): 0.15%; viability, T/C (second compound 0.003 µM, first compound 0.949 µM): 0.14%; viability, T/C (second compound 0.003 µM, first compound 3 µM): 0.26%

Q: Which IC50 (curve of first compound, second compound 1 µM) does the source give for Cc1cc(C)c(CNC(=O)c2cc(-c3ccc(CN4CCOCC4)cc3)cc3c2cnn3C2CCCC2)c(=O)[nH]1 + Cn1nnc2c(C(N)=O)ncn2c1=O here?
A: > 10000 nM

Q: What about the IC50 (curve of first compound, second compound 3.16 µM) of the same compound?
A: > 10000 nM

Q: And the IC50 (curve of first compound, second compound 10 µM)?
A: > 10000 nM

Q: What about the IC50 (curve of first compound, second compound 31.6 µM) of the same compound?
A: > 10000 nM

Q: What about the IC50 (curve of first compound, second compound 100 µM) of the same compound?
A: > 10000 nM

Q: What about the viability, T/C (second compound 1 µM, first compound 0.0316 µM) of the same compound?
A: 98.4%

Q: What about the viability, T/C (second compound 1 µM, first compound 0.1 µM) of the same compound?
A: 105%

Q: And the viability, T/C (second compound 1 µM, first compound 0.316 µM)?
A: 92.8%

Q: What about the viability, T/C (second compound 1 µM, first compound 1 µM) of the same compound?
A: 97.2%

Q: What about the viability, T/C (second compound 1 µM, first compound 3.16 µM) of the same compound?
A: 91.4%

Q: And the viability, T/C (second compound 1 µM, first compound 10 µM)?
A: 79.8%

Q: And the viability, T/C (second compound 3.16 µM, first compound 0.0316 µM)?
A: 101%

Q: And the viability, T/C (second compound 3.16 µM, first compound 0.1 µM)?
A: 99.1%

Q: And the viability, T/C (second compound 3.16 µM, first compound 0.316 µM)?
A: 95.1%

Q: And the viability, T/C (second compound 3.16 µM, first compound 1 µM)?
A: 98.7%

Q: What about the viability, T/C (second compound 3.16 µM, first compound 3.16 µM) of the same compound?
A: 89.9%

Q: And the viability, T/C (second compound 3.16 µM, first compound 10 µM)?
A: 72.7%

Q: What about the viability, T/C (second compound 10 µM, first compound 0.0316 µM) of the same compound?
A: 98%

Q: And the viability, T/C (second compound 10 µM, first compound 0.1 µM)?
A: 98.2%

Q: And the viability, T/C (second compound 10 µM, first compound 0.316 µM)?
A: 100%

Q: And the viability, T/C (second compound 10 µM, first compound 1 µM)?
A: 93.5%

Q: And the viability, T/C (second compound 10 µM, first compound 3.16 µM)?
A: 92.6%

Q: And the viability, T/C (second compound 10 µM, first compound 10 µM)?
A: 68.4%

Q: And the viability, T/C (second compound 31.6 µM, first compound 0.0316 µM)?
A: 104%

Q: And the viability, T/C (second compound 31.6 µM, first compound 0.1 µM)?
A: 98%

Q: What about the viability, T/C (second compound 31.6 µM, first compound 0.316 µM) of the same compound?
A: 94.4%

Q: What about the viability, T/C (second compound 31.6 µM, first compound 1 µM) of the same compound?
A: 102%

Q: And the viability, T/C (second compound 31.6 µM, first compound 3.16 µM)?
A: 88.4%

Q: What about the viability, T/C (second compound 31.6 µM, first compound 10 µM) of the same compound?
A: 73.8%

Q: And the viability, T/C (second compound 100 µM, first compound 0.0316 µM)?
A: 94%

Q: And the viability, T/C (second compound 100 µM, first compound 0.1 µM)?
A: 93.9%

Q: What about the viability, T/C (second compound 100 µM, first compound 0.316 µM) of the same compound?
A: 91%

Q: What about the viability, T/C (second compound 100 µM, first compound 1 µM) of the same compound?
A: 95.5%

Q: What about the viability, T/C (second compound 100 µM, first compound 3.16 µM) of the same compound?
A: 85.2%

Q: What about the viability, T/C (second compound 100 µM, first compound 10 µM) of the same compound?
A: 70.4%

Q: Which results are given for Cn1ncnc1[C@H]1c2n[nH]c(=O)c3cc(F)cc(c23)N[C@@H]1c1ccc(F)cc1?
A: viability, T/C (compound 0.00949 µM): 76.5% and 87.8% and 78.8%; viability, T/C (compound 0.03 µM): 64.8% and 81.5% and 64.3%; viability, T/C (compound 0.0949 µM): 40.7% and 58.8% and 46.4%; viability, T/C (compound 0.3 µM): 15.3% and 25.6% and 20.6%; viability, T/C (compound 0.949 µM): 6.4% and 9.46% and 9.61%; viability, T/C (compound 3 µM): 4.87% and 8.07% and 6.62%; IC50 (curve of compound): 60.5 nM and 129 nM and 70.4 nM
